Data published in patent US7943646B2, “Benzamidine derivative, process for the preparation thereof and pharmaceutical composition comprising same” (Dong Wha Pharmaceutical Co., Ltd., priority 2006, dated 2011).
Where two headings read alike, the source gives them in different places.

Key:
[1] = test system: osteoclast differentiation; experiment: Inhibitory effect on osteoclast differentiation, co-culture of bone marrow cells and osteoblast, TRAP staining; type: cell-based, mouse; conditions: Mus musculus, Osteoclast, 168 h, read-out: inhibitory effect on osteoclast differentiation(%)
How it was run: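 Mouse ddY bone marrow cells (25,000/cm^2) were co-cultured with neonatal ICR calvarial osteoblasts (10,000/cm^2) and compound for 7 days, with 10^−7 M dexamethasone and 10^−8 M vitamin D3, refreshed every 2–3 days. TRAP-positive cells with ≥3 nuclei were counted and expressed as % inhibition versus negative controls.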

HOS = experiment: Cytotoxicity test (MTT), HOS; type: cell-based; conditions: 10^−6M, 72 hrs, in comparison with the control group
Method: (§1) The cytotoxic effect of the benzamidine derivative of the present invention was evaluated by carrying out the experiment described below.
(§2) The test substance was diluted in an appropriate solvent at a 10^−2 M concentration. This substance was diluted in an appropriate culture medium for the cells used in the cytotoxicity test to a concentration of […], and loaded into a 96-well plate in 100 μl per well. The cell lines to be used in the cytotoxicity test were plated on a 96-well plate in a dose of 1.0×10^4 cells/1OO μl per well and cultured for 72 hrs. 25 μl of MTT [3-(4,5-dimethyl-2-thiazolyl)-2,5-diphenyl-2H-tetrazolium bromide] dissolved in PBS (2 mg/mL) were added before 4 hrs of the end of culture. After completion of the reaction, the plates were centrifuged, the medium was discarded and 100 μl of DMSO was added to dissolve formazan. Finally, the absorbance of the developed plates was measured at 540 nm. The survival rates of the cells were expressed as % concentration values in comparison with the control group.

MC3T3 = experiment: Cytotoxicity test (MTT), MC3T3; type: cell-based; conditions: 10^−6M, 72 hrs, in comparison with the control group
Method: as §1, §2

calvaria = experiment: Cytotoxicity test (MTT), calvaria; type: cell-based; conditions: 10^−6M, 72 hrs, in comparison with the control group
Method: as §1, §2

[2] = test system: ovariectomized white mouse; experiment: Therapeutic effect in mouse model of osteoporosis induced by ovariectomy, trabecular bone volume of the femur by histomorphometry; type: in vivo; conditions: read-out: Changes in trabecular bone volume (% relative to vehicle control)
Method: The therapeutic effect of each benzamidine derivate of the present invention was evaluated on the ovariectomized white mouse. The substances of Examples 18, 19 and 72 were administered from 4 weeks after operation for 4 weeks and the substances of Examples 27, 33, 36, 47, 53 and 59 were administered from 3 days after operation for 29 days. Thereafter, the changes in the trabecular bone volume (TBV) of the femur were observed via histomorphometry.
Female ddY mice (6-week-old, SLC, Japan) were used after acclimatization for 7 days. Animals to be test were allocated 5 per a plastic cage for mice, and raised in a temperature (20 to 25[…]) and humidity (30 to 35%) controlled room. Feed and water were supplied free to access.
Salts of the benzamidine derivative of the present invention (methanesulfonic acid or HCl) were dissolved or suspended in sterilized, distilled water or 5% DMSO, and administered at a dose of 10 ml per body weight (kg) in the form of a solution. The substances of Examples 18, 19 and 72 were administered from 4 weeks after operation for 4 weeks, and the substances of Examples 27, 33, 36, 47, 53 and 59 were administered from 3 days after operation for 29 days each at 50 mg/kg/day.
After all animals anesthetize using ketamine hydrochloride and xylazine hydrochloride, bilateral ovaries were removed in order to induce estrogen-deficient osteoporosis. After ovariectomy, the […] were closed by routine methods.
The left femur was separated at a final sacrifice day, and fixed in 10% neutral formalin, then decalcified in a decalcifying solution (solution composed of 2.44% formic acid, and 0.5 N sodium hydroxide). The decalcifying solution was exchanges once a day for 5 days. After completion of the decalcification, the femur was embedded in paraffin, sectioned (3 to 4 μM), and stained with a hematoxylin-eosin stain. Observation was made using optical micrography.
The trabecular bone volume was calculated using automated image analysis (analysis Image Processing; SIS, Germany) in the femur using a femur histological specimen prepared in the above manner. The trabecular bone volume was calculated as percentage (%) levels.
All the numeral values were determined and compared to that of the vehicle control used in each experiment, using the calculation by the following Equation 1. Change(%)=[(trabecular bone volume of a−trabecular bone volume of b)/trabecular bone volume of b]×100 [Equation 1]
a: Experiment group, b: Vehicle group

[3] = 1 μm, 7 days co-culture, TRAP-positive osteoclasts with 3 or more nuclei, relative to negative controls
[4] = 672 h, ovariectomized ddY mice, femur, 50 mg/kg/day, administered from 4 weeks after operation for 4 weeks
[5] = 696 h, ovariectomized ddY mice, femur, 50 mg/kg/day, administered from 3 days after operation for 29 days

Row | SMILES | inhibition at 1 µM [1] | inhibition at 1 µM [1, 3] | change in vivo at 50 mg/kg/day [2, 5] | other results
1 | Cc1nc(-c2ccc(OCCCCCOc3ccc(C(=N)NO)cc3)cc2)c(CCN2CCOCC2)s1 [Example 18, N-hydroxy-4-(5-{4-[2-methyl-5-(2-morpholin-4-yl-ethyl)-thiazol-4-yl]-phenoxy}-pentyloxy)-benzamidine] | 100% |  |  | survival rates of the cells (HOS): 99.7%; survival rates of the cells (MC3T3): 94.4%; survival rates of the cells (calvaria): 97.3%; change in vivo at 50 mg/kg/day ([2]; 672 h): 139%
2 | Cc1nc(-c2ccc(OCCCCCOc3ccc(C(=N)NO)cc3)cc2)c(CCN2CCN(C)CC2)s1 [Example 19, N-hydroxy-4-[5-(4-{2-methyl-5-[2-(4-methyl-piperazin-1-yl)-ethyl]-thiazol-4-yl}-phenoxy)-pentyloxy]-benzamidine] |  | 100% |  | change in vivo at 50 mg/kg/day [2, 4]: 2.99%
3 | CC(C)c1nc(-c2ccc(OCCCCCOc3ccc(C(=N)NO)cc3)cc2)c(CCN2CCOCC2)s1 [Example 27, N-hydroxy-4-(5-{4-[2-isopropyl-5-(2-morpholin-4-yl-ethyl)-thiazol-4-yl]-phenoxy}-pentyloxy)-benzamidine] |  | 81% | 23.6% | 
4 | N=C(NO)c1ccc(OCCCCCOc2ccc(-c3nc(C4CCCCC4)sc3CCN3CCOCC3)cc2)cc1 [Example 33, N-hydroxy-4-(5-{4-[2-cyclohexyl-5-(2-morpholin-4-yl-ethyl)-thiazol-4-yl]-phenoxy}-pentyloxy)-benzamidine] | 92% |  |  | change in vivo at 50 mg/kg/day ([2]; 696 h): 26.3%
5 | N=C(NO)c1ccc(OCCCCCOc2ccc(-c3nc(C4CCCCC4)sc3CCN3CCSCC3)cc2)cc1 [Example 36, N-hydroxy-4-(5-{4-[2-cyclohexyl-5-(2-thiomorpholin-4-yl-ethyl)-thiazol-4-yl]-phenoxy}-pentyloxy)-benzamidine] | 100% |  |  | survival rates of the cells (HOS): 81.4%; survival rates of the cells (MC3T3): 97.6%; survival rates of the cells (calvaria): 89.1%; change in vivo at 50 mg/kg/day ([2]; 696 h): 26.6%
6 | CNc1nc(-c2ccc(OCCCCCOc3ccc(C(=N)NO)cc3)cc2)c(CCN2CCOCC2)s1 [Example 47, N-hydroxy-4-(5-{4-[2-methylamino-5-(2-morpholin-4-yl-ethyl)-thiazol-4-yl]-phenoxy}-pentyloxy)-benzamidine] |  | 89.6% | 5.77% | 
7 | CN(C)c1nc(-c2ccc(OCCCCCOc3ccc(C(=N)NO)cc3)cc2)c(CCN2CCOCC2)s1 [Example 53, N-hydroxy-4-(5-{4-[2-dimethylamino-5-(2-morpholin-4-yl-ethyl)-thiazol-4-yl]-phenoxy}-pentyloxy)-benzamidine] |  | 99.3% | 25.6% | 
8 | N=C(NO)c1ccc(OCCCCCOc2ccc(-c3nc(N4CCOCC4)sc3CCN3CCOCC3)cc2)cc1 [Example 59, N-hydroxy-4-(5-{4-[2-morpholin-4-yl-5-(2-morpholin-4-yl-ethyl)-thiazol-4-yl]-phenoxy}-pentyloxy)-benzamidine] |  | 58% | 5.66% | 
9 | CNC(=O)c1sc(N)nc1-c1ccc(OCCCCCOc2ccc(C(=N)NO)cc2)cc1 [Example 72, N-hydroxy-4-{5-[4-(2-amino-5-methylcarbamoyl-thiazol-4-yl)-phenoxy]-pentyloxy}-benzamidine] |  | 97.6% |  | change in vivo at 50 mg/kg/day [2, 4]: 95.6%
